{"source": "patent US20090192176A1", "about": "“1H-PYRAZOLO[3,4-D]PYRIMIDINE, PURINE, 7H-PURIN-8(9H)-ONE, 3H-[1,2,3]TRIAZOLO[4,5-D]PYRIMIDINE, AND THIENO[3,2-D]PYRIMIDINE COMPOUNDS, THEIR USE AS mTOR KINASE AND PI3 KINASE INHIBITORS, AND THEIR SYNTHESES” (Wyeth, priority 2008, published 2009)", "type_in_all_cases": "biochemical", "key": {"Human mTOR": {"biological_target": "T1, Human mTOR (Homo sapiens, UniProt P42345)", "T1 construct": "FLAG", "assay": "mTOR kinase assay (DELFIA format, purified enzyme)", "conditions": "His6-S6K substrate, read-out: TOR Kinase IC50", "protocol": "mTOR Kinase Assay Methods\nHuman mTOR assays (See Toral-Barza, et al. Biochem Biophys. Res. Commun. 2005 Jun. 24; 332(1):304-10) with purified enzyme are performed in 96-well plates by DELFIA format as follows. Enzymes are first diluted in kinase assay buffer (10 mM HEPES (pH 7.4), 50 mM NaCl, 50 mM β-glycerophosphate, 10 mM MnCl2, 0.5 mM DTT, 0.25 mM microcystin LR, and […]). To each well, 12 μL of the diluted enzyme is mixed briefly with 0.5 μL test inhibitor or control vehicle dimethylsulfoxide (DMSO). The kinase reaction is initiated by adding 12.5 μL kinase assay buffer containing ATP and His6-S6K to give a final reaction volume of 25 μL containing 800 ng/mL FLAG-TOR, […] and […]. The reaction plate is incubated for 2 hours (linear at 1-6 hours) at room temperature with gentle shaking and then terminated by adding 25 μL Stop buffer (20 mM HEPES (pH 7.4), 20 mM EDTA, 20 mM EGTA). The DELFIA detection of the phosphorylated (Thr-389) His6-S6K is performed at room temperature using a monoclonal anti-P(T389)-p70S6K antibody (1A5, Cell Signaling) labeled with Europium-N1-ITC (Eu) (10.4 Eu per antibody, PerkinElmer). The DELFIA Assay buffer and Enhancement solution can be purchased from PerkinElmer. 45 μL of the terminated kinase reaction mixture is transferred to a MaxiSorp plate (Nunc) containing 55 μL PBS. The His6-S6K is allowed to attach for 2 hours after which the wells are aspirated and washed once with PBS. 100 μL of DELFIA Assay buffer with 40 ng/mL Eu-P(T389)-S6K antibody is added. The antibody binding is continued for 1 hour with gentle agitation. The wells are then aspirated and washed 4 times with PBS containing 0.05% Tween-20 (PBST). 100 μL of DELFIA Enhancement solution is added to each well and the plates are read in a PerkinElmer Victor model plate reader. Data obtained is used to calculate enzymatic activity and enzyme inhibition by potential inhibitors."}, "PI3 Kinase γ": {"biological_target": "PI3 Kinase γ (Homo sapiens, UniProt P48736)", "sequence (P48736 whole entry)": "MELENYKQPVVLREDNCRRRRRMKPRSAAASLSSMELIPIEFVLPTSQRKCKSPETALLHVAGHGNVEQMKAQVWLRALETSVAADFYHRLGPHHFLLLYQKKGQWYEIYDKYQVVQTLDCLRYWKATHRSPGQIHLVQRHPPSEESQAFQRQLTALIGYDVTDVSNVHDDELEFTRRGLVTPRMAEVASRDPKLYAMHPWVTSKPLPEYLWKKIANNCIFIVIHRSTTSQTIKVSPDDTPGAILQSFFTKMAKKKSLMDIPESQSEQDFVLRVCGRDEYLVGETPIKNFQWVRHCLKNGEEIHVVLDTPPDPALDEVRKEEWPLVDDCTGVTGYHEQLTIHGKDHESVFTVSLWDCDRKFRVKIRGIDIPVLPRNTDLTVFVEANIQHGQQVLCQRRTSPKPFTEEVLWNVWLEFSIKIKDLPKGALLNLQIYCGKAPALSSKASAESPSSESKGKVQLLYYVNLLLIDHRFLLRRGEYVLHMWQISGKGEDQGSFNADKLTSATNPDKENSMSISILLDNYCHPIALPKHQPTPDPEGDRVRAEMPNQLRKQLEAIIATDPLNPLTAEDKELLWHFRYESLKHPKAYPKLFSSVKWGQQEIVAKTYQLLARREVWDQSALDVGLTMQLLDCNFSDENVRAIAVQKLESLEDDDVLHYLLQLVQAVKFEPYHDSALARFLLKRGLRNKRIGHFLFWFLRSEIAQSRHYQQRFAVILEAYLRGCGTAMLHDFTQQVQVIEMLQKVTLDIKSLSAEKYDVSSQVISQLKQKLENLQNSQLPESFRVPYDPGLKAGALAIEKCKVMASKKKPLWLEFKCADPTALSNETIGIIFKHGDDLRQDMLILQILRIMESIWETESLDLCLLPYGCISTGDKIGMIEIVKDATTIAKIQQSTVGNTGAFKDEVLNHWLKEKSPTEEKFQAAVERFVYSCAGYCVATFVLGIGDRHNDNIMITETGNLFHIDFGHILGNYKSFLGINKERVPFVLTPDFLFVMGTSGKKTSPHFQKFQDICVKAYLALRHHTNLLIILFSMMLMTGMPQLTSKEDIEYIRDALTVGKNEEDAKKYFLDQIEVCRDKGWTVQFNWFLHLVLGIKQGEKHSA", "assay": "Fluorescence polarization assay for PI3K", "protocol": "(§1) Fluorescence Polarization Assay for PI3K\n(§2) This assay is used to determine the IC50 of compounds of the present invention as it identifies inhibitors of PI3 kinase by measuring inhibition.\n(§3) Reaction Buffer: 20 mM HEPES, pH 7.5, 2 mM MgCl2, 0.05% CHAPS; and 0.01% BME (added fresh) Stop/Detection Buffer: 100 mM HEPES, pH 7.5, 4 mM EDTA, 0.05% CHAPS; ATP 20 mM in water; PIP2 (diC8, cat# P-4508) 1 mM in water (MW=856.5); GST-GRP 1.75 mg/mL or 1.4 mg/mL in 10% glycerol; Red detector (TAMRA) 2.5 μM; Plate: Nunc 384 well black polypropylene fluorescence plate.\n(§4) The assay is run by placing 5 μL of diluted enzyme per well, then 5 μL of diluted compound (or 9.5 μL enzyme then 0.5 μL compound in DMSO) is added and mixed. Then, 10 μL substrate is added to start the reaction. The samples are incubated 30-60 minutes, then the reaction is stopped by adding 20 μL stop/detector mix. PI3K is diluted with reaction buffer (e.g., 5 μL or 7.5 μL PI3K into 620 μL reaction buffer), and 5 μL of diluted enzyme is used per well. 5 μL reaction buffer or drug diluted in buffer (e.g., 4 μL/100 so final DMSO is 1% in reaction) is added to each. Pipetting up and down mixes the samples. Alternatively, the enzyme can be diluted to 1215 μL. In this case 9.8 μL is added per well and 0.2 μL compound is added in DMSO. To prepare 1 mL of substrate solution, 955 μL reaction buffer, 40 μL PIP2, and 2.5 μL ATP are mixed. 10 μL of substrate is added to each well to start the reaction.\n(§5) Stop/detector mix is prepared by mixing 4 μL Red detector and 1.6 μL or 2.0 μL GST-GRP with 1 mL Stop buffer, which results in 10 nM probe and 70 nM GST-GRP). 20 μL of the stop/detector mix is added to each well to stop the reaction. The plates are read after 30-90 minutes keeping the red probe solutions dark. For the zero time point, stop/detector mix is added to the enzyme just before adding substrate. For an extra control, stop/detector mix is added to buffer (no enzyme) and substrate or to just buffer (no substrate). […] The recommended reaction has 0.06 μL per 20 μL (0.015 μg/20 μL) or 0.01125 μg/15 μL or 0.75 μg/mL. Plates are read on machines with filters for Tamra. The units are mP with no enzyme controls reading app 190-220 mP units. Fully active enzyme reduces fluorescence polarization down to 70-100 mP after 30 minutes. An active compound raises the mP values halfway to control or to 120-150 mP units."}, "PI3 Kinase α": {"biological_target": "PI3 Kinase α (Homo sapiens, UniProt P42336)", "sequence (P42336 whole entry)": "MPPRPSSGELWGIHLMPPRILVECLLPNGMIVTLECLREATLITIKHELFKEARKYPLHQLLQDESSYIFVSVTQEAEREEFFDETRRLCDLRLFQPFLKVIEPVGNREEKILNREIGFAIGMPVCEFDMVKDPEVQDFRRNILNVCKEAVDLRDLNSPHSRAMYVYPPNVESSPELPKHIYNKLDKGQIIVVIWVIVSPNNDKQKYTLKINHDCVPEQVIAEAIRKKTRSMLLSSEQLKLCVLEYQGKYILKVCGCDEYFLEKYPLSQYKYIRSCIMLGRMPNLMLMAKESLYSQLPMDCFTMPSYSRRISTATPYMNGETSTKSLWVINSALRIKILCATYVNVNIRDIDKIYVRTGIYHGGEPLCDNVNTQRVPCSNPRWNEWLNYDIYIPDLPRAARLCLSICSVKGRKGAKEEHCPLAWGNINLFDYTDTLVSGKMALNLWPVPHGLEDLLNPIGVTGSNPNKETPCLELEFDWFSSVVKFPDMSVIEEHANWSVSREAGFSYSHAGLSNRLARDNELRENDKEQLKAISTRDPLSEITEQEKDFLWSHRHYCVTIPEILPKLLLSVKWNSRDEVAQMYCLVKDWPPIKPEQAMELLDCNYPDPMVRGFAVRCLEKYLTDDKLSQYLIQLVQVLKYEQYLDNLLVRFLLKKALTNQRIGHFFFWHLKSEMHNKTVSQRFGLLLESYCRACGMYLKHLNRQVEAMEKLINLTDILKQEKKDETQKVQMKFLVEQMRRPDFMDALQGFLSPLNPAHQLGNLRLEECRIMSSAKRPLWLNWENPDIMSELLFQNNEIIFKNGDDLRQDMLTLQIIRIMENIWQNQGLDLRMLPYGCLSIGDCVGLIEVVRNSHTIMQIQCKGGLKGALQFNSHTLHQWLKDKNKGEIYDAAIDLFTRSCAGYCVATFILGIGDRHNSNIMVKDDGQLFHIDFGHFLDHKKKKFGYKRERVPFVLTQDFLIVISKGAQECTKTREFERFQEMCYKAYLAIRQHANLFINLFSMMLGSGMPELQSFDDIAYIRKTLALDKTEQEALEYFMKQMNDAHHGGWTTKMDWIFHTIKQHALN", "sequence (P27986 whole entry partner)": "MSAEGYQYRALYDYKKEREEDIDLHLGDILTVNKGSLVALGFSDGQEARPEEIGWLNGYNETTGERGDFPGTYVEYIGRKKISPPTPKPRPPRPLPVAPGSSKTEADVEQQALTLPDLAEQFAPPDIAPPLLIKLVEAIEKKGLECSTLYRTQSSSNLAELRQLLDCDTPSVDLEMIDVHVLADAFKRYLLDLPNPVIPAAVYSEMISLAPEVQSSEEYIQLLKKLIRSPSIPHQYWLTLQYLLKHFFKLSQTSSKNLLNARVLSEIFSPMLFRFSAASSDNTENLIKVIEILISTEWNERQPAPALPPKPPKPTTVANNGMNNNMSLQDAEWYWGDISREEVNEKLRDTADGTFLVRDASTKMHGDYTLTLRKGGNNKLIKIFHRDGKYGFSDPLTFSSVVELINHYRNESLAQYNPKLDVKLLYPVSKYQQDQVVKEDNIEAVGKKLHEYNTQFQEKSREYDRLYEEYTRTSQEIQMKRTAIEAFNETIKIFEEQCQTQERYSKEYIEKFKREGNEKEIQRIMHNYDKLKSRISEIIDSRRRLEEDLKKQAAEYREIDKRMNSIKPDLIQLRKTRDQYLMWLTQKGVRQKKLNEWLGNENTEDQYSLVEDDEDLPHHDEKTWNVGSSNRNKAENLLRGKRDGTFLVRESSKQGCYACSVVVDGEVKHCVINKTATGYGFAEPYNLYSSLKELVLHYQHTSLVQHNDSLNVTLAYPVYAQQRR", "assay": "Fluorescence polarization assay for PI3K", "protocol": "as §1, §2, §3, §4, §5"}}, "data": [{"compound": "O=C(Nc1ccc(-c2nc(C3=CCOCC3)c3ncn(C4CCNCC4)c3n2)cc1)NC1CCNCC1", "note": "[Compound 26, 1-{4-[6-(3,6-dihydro-2H-pyran-4-yl)-9-piperidin-4-yl-9H-purin-2-yl]phenyl}-3-piperidin-4-ylurea]", "values": [{"measurement": "IC50", "setting": "Human mTOR", "value": "> 4000", "unit": "nM"}, {"measurement": "IC50", "setting": "PI3 Kinase γ", "value": 7000, "unit": "nM"}, {"measurement": "IC50", "setting": "PI3 Kinase α", "value": 2670, "unit": "nM"}]}, {"compound": "Oc1cncc(-c2nc(C3=CCOCC3)c3ncn(C4CCN(Cc5c[nH]c6ccc(F)cc56)CC4)c3n2)c1", "note": "[Compound 33, 5-[6-(3,6-dihydro-2H-pyran-4-yl)-9-{1-[(5-fluoro-1H-indol-3-yl)methyl]piperidin-4-yl}-9H-purin-2-yl]pyridin-3-ol]", "values": [{"measurement": "IC50", "setting": "Human mTOR", "value": 12000, "unit": "nM"}, {"measurement": "IC50", "setting": "PI3 Kinase γ", "value": 385, "unit": "nM"}, {"measurement": "IC50", "setting": "PI3 Kinase α", "value": 265, "unit": "nM"}]}, {"compound": "Oc1cncc(-c2nc(C3=CCOCC3)c3ncn(C4CCN(Cc5ccc(Br)nc5)CC4)c3n2)c1", "note": "[Compound 30, 5-[9-{1-[(6-bromopyridin-3-yl)methyl]piperidin-4-yl}-6-(3,6-dihydro-2H-pyran-4-yl)-9H-purin-2-yl]pyridin-3-ol]", "values": [{"measurement": "IC50", "setting": "Human mTOR", "value": 2000, "unit": "nM"}, {"measurement": "IC50", "setting": "PI3 Kinase γ", "value": 2470, "unit": "nM"}, {"measurement": "IC50", "setting": "PI3 Kinase α", "value": 275, "unit": "nM"}]}, {"compound": "COc1ccc(CN2CCC(n3cnc4c(C5=CCOCC5)nc(-c5cncc(O)c5)nc43)CC2)cn1", "note": "[Compound 32, 5-[6-(3,6-dihydro-2H-pyran-4-yl)-9-{1-[(6-methoxypyridin-3-yl)methyl]piperidin-4-yl}-9H-purin-2-yl]pyridin-3-ol]", "values": [{"measurement": "IC50", "setting": "Human mTOR", "value": 1700, "unit": "nM"}, {"measurement": "IC50", "setting": "PI3 Kinase γ", "value": 2530, "unit": "nM"}, {"measurement": "IC50", "setting": "PI3 Kinase α", "value": 858, "unit": "nM"}]}, {"compound": "OCc1cccc(-c2nc(C3=CCOCC3)c3ncn(C4CCN(Cc5ccccc5)CC4)c3n2)c1", "note": "[Compound 21, {3-[9-(1-benzylpiperidin-4-yl)-6-(3,6-dihydro-2H-pyran-4-yl)-9H-purin-2-yl]phenyl}methanol]", "values": [{"measurement": "IC50", "setting": "Human mTOR", "value": 3500, "unit": "nM"}, {"measurement": "IC50", "setting": "PI3 Kinase γ", "value": 4360, "unit": "nM"}, {"measurement": "IC50", "setting": "PI3 Kinase α", "value": 952, "unit": "nM"}]}, {"compound": "Oc1cncc(-c2nc(C3=CCOCC3)c3ncn(C4CCN(Cc5ccccn5)CC4)c3n2)c1", "note": "[Compound 31, 5-{6-(3,6-dihydro-2H-pyran-4-yl)-9-[1-(pyridin-2-ylmethyl)piperidin-4-yl]-9H-purin-2-yl}pyridin-3-ol]", "values": [{"measurement": "IC50", "setting": "Human mTOR", "value": 1600, "unit": "nM"}, {"measurement": "IC50", "setting": "PI3 Kinase γ", "value": 2990, "unit": "nM"}, {"measurement": "IC50", "setting": "PI3 Kinase α", "value": 619, "unit": "nM"}]}, {"compound": "Oc1cccc(-c2nc(C3=CCOCC3)c3ncn(C4CCN(Cc5ccc(N6CCOCC6)nc5)CC4)c3n2)c1", "note": "[Compound 14, 3-[6-(3,6-dihydro-2H-pyran-4-yl)-9-{1-[(6-morpholin-4-ylpyridin-3-yl)methyl]piperidin-4-yl}-9H-purin-2-yl]phenol]", "values": [{"measurement": "IC50", "setting": "Human mTOR", "value": 860, "unit": "nM"}, {"measurement": "IC50", "setting": "PI3 Kinase γ", "value": "> 10000", "unit": "nM"}, {"measurement": "IC50", "setting": "PI3 Kinase α", "value": 1490, "unit": "nM"}]}, {"compound": "OCc1cccc(-c2nc(C3=CCOCC3)c3nn[nH]c3n2)c1", "note": "[Compound 49, {3-[7-(3,6-dihydro-2H-pyran-4-yl)-3H-[1,2,3]triazolo[4,5-d]pyrimidin-5-yl]phenyl}methanol]", "values": [{"measurement": "IC50", "setting": "Human mTOR", "value": 340, "unit": "nM"}, {"measurement": "IC50", "setting": "PI3 Kinase γ", "value": 1040, "unit": "nM"}, {"measurement": "IC50", "setting": "PI3 Kinase α", "value": 390, "unit": "nM"}]}, {"compound": "OCc1cccc(-c2nc(C3=CCOCC3)c3ncn(C4CCN(Cc5cccnc5)CC4)c3n2)c1", "note": "[Compound 23, (3-{6-(3,6-dihydro-2H-pyran-4-yl)-9-[1-(pyridin-3-ylmethyl)piperidin-4-yl]-9H-purin-2-yl}phenyl)methanol]", "values": [{"measurement": "IC50", "setting": "Human mTOR", "value": 3800, "unit": "nM"}, {"measurement": "IC50", "setting": "PI3 Kinase γ", "value": 7370, "unit": "nM"}, {"measurement": "IC50", "setting": "PI3 Kinase α", "value": 1490, "unit": "nM"}]}, {"compound": "Oc1cccc(-c2nc(C3=CCOCC3)c3ncn(C4CCN(Cc5ccccc5)CC4)c3n2)c1", "note": "[Compound 12, 3-[9-(1-benzylpiperidin-4-yl)-6-(3,6-dihydro-2H-pyran-4-yl)-9H-purin-2-yl]phenol]", "values": [{"measurement": "IC50", "setting": "Human mTOR", "value": 1800, "unit": "nM"}, {"measurement": "IC50", "setting": "PI3 Kinase γ", "value": 5000, "unit": "nM"}, {"measurement": "IC50", "setting": "PI3 Kinase α", "value": 1770, "unit": "nM"}]}, {"compound": "5-[9-{1-[(5-bromopyridin-3-yl)methyl]piperidin-4-yl}-6-(3,6-dihydro-2H-pyran-4-yl)-9H-purin-2-yl]pyridin-3-ol [Compound 35]", "values": [{"measurement": "IC50", "setting": "Human mTOR", "value": 9800, "unit": "nM"}, {"measurement": "IC50", "setting": "PI3 Kinase γ", "value": 6740, "unit": "nM"}, {"measurement": "IC50", "setting": "PI3 Kinase α", "value": 1340, "unit": "nM"}]}, {"compound": "Oc1cccc(-c2nc(C3=CCOCC3)c3nn[nH]c3n2)c1", "note": "[Compound 48, 3-[7-(3,6-dihydro-2H-pyran-4-yl)-3H-[1,2,3]triazolo[4,5-d]pyrimidin-5-yl]phenol]", "values": [{"measurement": "IC50", "setting": "Human mTOR", "value": 32, "unit": "nM"}, {"measurement": "IC50", "setting": "PI3 Kinase γ", "value": 257, "unit": "nM"}, {"measurement": "IC50", "setting": "PI3 Kinase α", "value": 93, "unit": "nM"}]}]}
